Experimental data: ChEMBL document CHEMBL1201861, “Genomics of Drug Sensitity in Cancer screening data, Wellcome Trust Sanger Institute”

Legend:
Assay in all cases: cells
Format in all cases: functional, cell-based, Homo sapiens
[1] = tested on: DOK; details: Homo sapiens, DOK;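 also: cell viability assay read-out, values reflect inhibition of cell growth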
Description: SANGER: Inhibition of human DOK cell growth in a cell viability assay.

[2] = tested on: EFM-19; details: Homo sapiens, EFM-19;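 also: growth inhibition of human EFM-19 cells, measured in a cell viability assay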
Description: SANGER: Inhibition of human EFM-19 cell growth in a cell viability assay.

[3] = tested on: G-361; details: Homo sapiens, G-361
[4] = tested on: HCC1806; details: Homo sapiens, HCC1806;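 also: growth inhibition of the cancer cell line, determined with a cell viability assay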
Description: SANGER: Inhibition of human HCC1806 cell growth in a cell viability assay.

[5] = tested on: HCC38; details: Homo sapiens, HCC38;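 also: cell viability assay on the human HCC38 cell line, with IC50 marking the concentration that inhibits cell growth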
Description: SANGER: Inhibition of human HCC38 cell growth in a cell viability assay.

[6] = tested on: HEC-1; details: Homo sapiens, HEC-1;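 also: growth inhibition of the cell line, read out with a cell viability assay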
Description: SANGER: Inhibition of human HEC-1 cell growth in a cell viability assay.

[7] = tested on: HO-1-N-1; details: Homo sapiens, HO-1-N-1;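 also: growth inhibition of human HO-1-N-1 cells, read out with a cell viability assay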
Description: SANGER: Inhibition of human HO-1-N-1 cell growth in a cell viability assay.

[8] = tested on: HSC-2; details: Homo sapiens, HSC-2;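 also: growth inhibition of human HSC-2 cells, read out by a cell viability assay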
Description: SANGER: Inhibition of human HSC-2 cell growth in a cell viability assay.

[9] = tested on: HSC-3; details: Homo sapiens, HSC-3
Description: SANGER: Inhibition of human HSC-3 cell growth in a cell viability assay.

[10] = tested on: HT-1080; details: Homo sapiens, HT-1080
Description: SANGER: Inhibition of human HT-1080 cell growth in a cell viability assay.

[11] = tested on: HT-29; details: Homo sapiens, HT-29;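 also: growth inhibition of human HT-29 cells, read out by a cell viability assay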
Description: SANGER: Inhibition of human HT-29 cell growth in a cell viability assay.

[12] = tested on: HT-3; details: Homo sapiens, HT-3;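 also: growth inhibition measured with a cell viability readout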
Description: SANGER: Inhibition of human HT-3 cell growth in a cell viability assay.

[13] = tested on: J82; details: Homo sapiens, J82;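 also: growth inhibition of J82 cells, read out with a cell viability assay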
Description: SANGER: Inhibition of human J82 cell growth in a cell viability assay.

[14] = tested on: KYSE-270; details: Homo sapiens, KYSE-270;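 also: cell growth inhibition measured with a viability assay in the human KYSE-270 line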
Description: SANGER: Inhibition of human KYSE-270 cell growth in a cell viability assay.

[15] = tested on: LCLC-103H cell line; details: Homo sapiens, LCLC-103H
Description: SANGER: Inhibition of human LCLC-103H cell growth in a cell viability assay.

[16] = tested on: LK-2; details: Homo sapiens, LK-2;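 also: growth inhibition of LK-2 cells, read out with a viability assay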
Description: SANGER: Inhibition of human LK-2 cell growth in a cell viability assay.

[17] = tested on: LoVo; details: Homo sapiens, LoVo;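 also: growth inhibition of human LoVo cells, read out with a cell viability assay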
Description: SANGER: Inhibition of human LoVo cell growth in a cell viability assay.

[18] = tested on: MRK-nu-1; details: Homo sapiens, MRK-nu-1;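 also: cell viability assay measuring growth suppression of human MRK-nu-1 cells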
Description: SANGER: Inhibition of human MRK-nu-1 cell growth in a cell viability assay.

[19] = tested on: NCI-H1623; details: Homo sapiens, NCI-H1623;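 also: cell viability assay used as the read-out for growth inhibition of NCI-H1623 cells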
Description: SANGER: Inhibition of human NCI-H1623 cell growth in a cell viability assay.

[20] = tested on: NCI-H1963; details: Homo sapiens, NCI-H1963;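 also: cell growth inhibition of the human line, determined with a cell viability assay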
Description: SANGER: Inhibition of human NCI-H1963 cell growth in a cell viability assay.

[21] = tested on: NCI-H2052; details: Homo sapiens, NCI-H2052;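 also: growth inhibition of NCI-H2052 cells, read out with a cell viability assay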
Description: SANGER: Inhibition of human NCI-H2052 cell growth in a cell viability assay.

[22] = tested on: NCI-H2171; details: Homo sapiens, NCI-H2171;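 also: growth inhibition of human NCI-H2171 cells, read out by a cell viability assay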
Description: SANGER: Inhibition of human NCI-H2171 cell growth in a cell viability assay.

[23] = tested on: NCI-H661; details: Homo sapiens, NCI-H661;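 also: cell viability assay read-out, IC50 being the concentration that inhibits growth of the cells by half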
Description: SANGER: Inhibition of human NCI-H661 cell growth in a cell viability assay.

[24] = tested on: NCI-H716; details: Homo sapiens, NCI-H716;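 also: growth inhibition of human NCI-H716 cells, measured by a cell viability assay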
Description: SANGER: Inhibition of human NCI-H716 cell growth in a cell viability assay.

[25] = tested on: NY; details: Homo sapiens, NY
Description: SANGER: Inhibition of human NY cell growth in a cell viability assay.

[26] = tested on: PFSK-1; details: Homo sapiens, PFSK-1;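 also: cell viability assay measuring how strongly compounds suppress growth of human PFSK-1 cells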
Description: SANGER: Inhibition of human PFSK-1 cell growth in a cell viability assay.

[27] = tested on: RL; details: Homo sapiens, RL
Description: SANGER: Inhibition of human RL cell growth in a cell viability assay.

[28] = tested on: RMG-I; details: Homo sapiens, RMG-I;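 also: growth inhibition of human RMG-I cells, read out with a cell viability assay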
Description: SANGER: Inhibition of human RMG-I cell growth in a cell viability assay.

[29] = tested on: RPMI-7951; details: Homo sapiens, RPMI-7951
Description: SANGER: Inhibition of human RPMI-7951 cell growth in a cell viability assay.

[30] = tested on: SCC-25; details: Homo sapiens, SCC-25;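 also: growth inhibition of SCC-25 cells, measured with a cell viability assay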
Description: SANGER: Inhibition of human SCC-25 cell growth in a cell viability assay.

[31] = tested on: SCLC-21H; details: Homo sapiens, SCLC-21H;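 also: growth inhibition of cultured human SCLC-21H cells, read out with a cell viability assay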
Description: SANGER: Inhibition of human SCLC-21H cell growth in a cell viability assay.

[32] = tested on: SIMA; details: Homo sapiens, SIMA;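 also: growth inhibition of SIMA cells, measured with a cell viability readout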
Description: SANGER: Inhibition of human SIMA cell growth in a cell viability assay.

[33] = tested on: SK-LU-1; details: Homo sapiens, SK-LU-1;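 also: cell viability assay measuring growth inhibition of human SK-LU-1 cells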
Description: SANGER: Inhibition of human SK-LU-1 cell growth in a cell viability assay.

[34] = tested on: SK-MES-1; details: Homo sapiens, SK-MES-1;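 also: growth inhibition of human SK-MES-1 cells, read out with a cell viability assay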
Description: SANGER: Inhibition of human SK-MES-1 cell growth in a cell viability assay.

[35] = tested on: SW13; details: Homo sapiens, SW13;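 also: IC50 is inhibition of SW13 cell growth, read out with a cell viability assay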
Description: SANGER: Inhibition of human SW13 cell growth in a cell viability assay.

[36] = tested on: SW1463; details: Homo sapiens, SW1463;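 also: growth inhibition of SW1463 cells, determined with a cell viability assay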
Description: SANGER: Inhibition of human SW1463 cell growth in a cell viability assay.

[37] = tested on: 786-0; details: Homo sapiens
Description: SANGER: Inhibition of human 786-0 cell growth in a cell viability assay.

[38] = tested on: A 172; details: Homo sapiens, A 172;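 also: growth inhibition of A172 cells, measured with a cell viability readout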
Description: SANGER: Inhibition of human A172 cell growth in a cell viability assay.

[39] = tested on: A2780; details: Homo sapiens, A2780;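 also: growth inhibition of A2780 cells, read out with a cell viability assay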
Description: SANGER: Inhibition of human A2780 cell growth in a cell viability assay.

[40] = tested on: AU565; details: Homo sapiens, AU565;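 also: cell viability assay measuring growth inhibition of human AU565 cells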
Description: SANGER: Inhibition of human AU565 cell growth in a cell viability assay.

[41] = tested on: BHT-101; details: Homo sapiens, BHT-101
Description: SANGER: Inhibition of human BHT-101 cell growth in a cell viability assay.

[42] = tested on: BL-41; details: Homo sapiens, BL-41;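 also: growth inhibition of human BL-41 cells, read out with a cell viability assay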
Description: SANGER: Inhibition of human BL-41 cell growth in a cell viability assay.

[43] = tested on: BT-20; details: Homo sapiens, BT-20;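 also: cell viability assay measuring suppression of growth in human BT-20 cells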
Description: SANGER: Inhibition of human BT-20 cell growth in a cell viability assay.

[44] = tested on: C-33-A; details: Homo sapiens, C-33-A;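 also: cell viability assay measuring growth inhibition of C-33-A cells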
Description: SANGER: Inhibition of human C-33-A cell growth in a cell viability assay.

[45] = tested on: CA46; details: Homo sapiens, CA46;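 also: growth inhibition of human CA46 cells, read out by a cell viability assay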
Description: SANGER: Inhibition of human CA46 cell growth in a cell viability assay.

[46] = tested on: CAL-62; details: Homo sapiens, CAL-62;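 also: growth inhibition of CAL-62 cells, read out with a cell viability assay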
Description: SANGER: Inhibition of human CAL-62 cell growth in a cell viability assay.

[47] = tested on: WM-115; details: Homo sapiens, WM-115
Description: SANGER: Inhibition of human WM-115 cell growth in a cell viability assay.

[48] = tested on: YKG-1; details: Homo sapiens, YKG-1;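 also: cell growth inhibition, read out with a viability assay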
Description: SANGER: Inhibition of human YKG-1 cell growth in a cell viability assay.

Measured: IC50

CCC/C=C/C=C/C(=O)O[C@H]1/C(=C/C(=O)OC)C[C@H]2C[C@H]([C@@H](C)O)OC(=O)C[C@H](O)C[C@@H]3C[C@H](OC(C)=O)C(C)(C)[C@](O)(C[C@@H]4C/C(=C/C(=O)OC)C[C@H](/C=C/C(C)(C)[C@]1(O)O2)O4)O3 [BRYOSTATIN 1]
0.00413 µM: [48]
> 0.008 µM: all other assays above

Oc1ccc2ccccc2c1SSc1c(O)ccc2ccccc12
18.9 µM: [33]
3.66 µM: [45]
3.32 µM: [37]
29.2 µM: [16]
3.1 µM: [42]
28.4 µM: [39]
31.2 µM: [40]
18.5 µM: [15]
18.6 µM: [10]
27.3 µM: [2]
7.05 µM: [13]
11.6 µM: [34]
> 32 µM: all other assays above
